Source: patent US4342780A, “Method of depleting endogenous monoamines” (Merrell-Toraude et Cie, priority 1981, dated 1982)

Legend:
[1] = target: T1, AADC (Sus scrofa, UniProt P80041); assay: In vitro AADC inhibition: time of 90% inactivation (14CO2 trapping, DL-[1-14C]-dopa substrate); assay type: biochemical, hog; design: key to RATING: ++++: The relative activities of the compounds are rated by the given number of "plus" signs; +++: The relative activities of the compounds are rated by the given number of "plus" signs; 0-+: The relative activities of the compounds are rated by the given number of "plus" signs; conditions: CONC. 10 μM
T1 sequence (P80041 1-486): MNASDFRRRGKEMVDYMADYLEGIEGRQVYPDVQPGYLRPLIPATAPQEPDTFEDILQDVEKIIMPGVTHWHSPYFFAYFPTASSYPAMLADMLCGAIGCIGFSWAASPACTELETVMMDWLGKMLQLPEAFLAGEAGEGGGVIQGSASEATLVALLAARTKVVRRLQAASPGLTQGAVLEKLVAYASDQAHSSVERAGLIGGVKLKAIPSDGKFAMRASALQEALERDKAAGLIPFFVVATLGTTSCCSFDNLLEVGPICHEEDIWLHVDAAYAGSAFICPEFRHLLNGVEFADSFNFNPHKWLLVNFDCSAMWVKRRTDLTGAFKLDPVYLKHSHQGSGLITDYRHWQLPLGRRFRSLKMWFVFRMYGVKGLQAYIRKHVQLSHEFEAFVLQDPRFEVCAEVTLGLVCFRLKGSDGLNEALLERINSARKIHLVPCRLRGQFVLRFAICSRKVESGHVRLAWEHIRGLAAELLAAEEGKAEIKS
Procedure: AADC can be purified from hog kidney by the general method of J. Christenson et al. Archs. Biochem. Biophys., 141, 356 (1970) and G. Lancaster et al., Can. J. Biochem., 50, 791 (1972), and the specific activity of the enzyme is determined by the ^14 CO2 trapping method using DL-[1-^14 C]-dopa as the substrate (see Christenson et al.). One unit of activity is defined as the total amount of enzyme which produces 1 n mol of CO2 per minute, with DL-[1-^14 C]-dopa as substrate.
To 100 μl of 50 mM-phosphate buffer pH 7.4 containing 100 mM-mercapto-ethanol are added 5 μl of an aqueous solution containing the test compound at the desired concentration and 50 μl of an aqueous solution containing 2 units of AADC. The mixture is incubated at 37° C. and 20 μl aliquots are removed at various times. The AADC activity remaining in each aliquot is measured by the CO2 trapping method of Christenson.
The relative activities of the compounds are rated by the given number of "plus" signs.

[2] = tested on: AADC; assay: Ex vivo AADC activity in organs of mice after repeated i.p. doses (Table II); design: species or system mice (Swiss Albino); conditions: three days, 12 h after 6th dose, vs control
Procedure: (§1) The test animals (e.g. mice or rats) are given the test compound in a suitable vehicle, either orally or by injection, each day over the period of time desired. The animals are kept on a constant time cycle, and body weights are measured daily. The animals are sacrificed by decapitation 12 to 24 hours after receiving the last dose of the test compound. Control animals receive the vehicle alone.
(§2) Immediately after death, the organs (brain, heart, and kidney) are removed and homogenized either in 50 ml phosphate buffer pH 6.8 for AADC determination or in ice-cold 0.4 M HClO4 containing 0.05% (w/v) EDTA and 0.1% (w/v) sodium bisulfite for catecholamine determination. AADC activity is determined by the ^14 CO2 trapping method of J. Christenson, supra (see Example 14) using DL-[1-^14 C]-dopa as the substrate. Catecholamines are determined by centrifuging the homogenate, adding the supernatant to alumina buffered to pH 8.0-8.4 to adsorb the catecholamines, re-extracting the catecholamines from the alumina with 0.2 M HClO4 and determining the catecholamines in the extracts using known procedures, such as by reversed-phase ion-pair HPLC with electrochemical detection.
(§3) Table II, shown below, sets forth the results obtained by testing particular compounds of Formula I in the above-described procedure in mice (Swiss Albino) after i.p. administration of the compound twice daily for three days: […]

[3] = tested on: catecholamine content (norepinephrine, dopamine); assay: Catecholamine content in organs of mice after repeated i.p. doses (Table II); assay type: in vivo, mice (Swiss Albino); conditions: three days, 12 h after 6th dose, vs control
Procedure: as §1, §2, §3

[4] = tested on: dopamine, noradrenaline and serotonin content; assay: Effect of repeated administration on catecholamine and serotonin content of the mouse brain (Table V); assay type: in vivo, Male albino mice; conditions: 5 × 100 mg/kg i.p. every 12 hours
Procedure: The following example illustrates the effect of repeated administration of 2-amino-2-fluoromethyl-3(3,4-dihydroxyphenyl)propionic acid in the brain.
Male albino mice (25-30 g) from Charles River, France and dosed i.p. with 100 mg/kg of 2-amino-2-fluoromethyl-3-(3,4-dihydroxyphenyl)propionic acid every 12 hours for 5 doses. Saline solution is used as a control. The mice are sacrificed and the catecholamines, dopamine and noradrenaline, and serotonin (5-hydroxytryptamine) are determined by reverse-phase ion-pair high pressure liquid chromatography using electrochemical detection.

[5] = tested on: catecholamine levels (dopamine, noradrenaline); assay: Effect of dopamine injection on catecholamine levels in heart and brain of mice treated with test compound (Table VI); assay type: in vivo, Male albino mice; conditions: ± SEM, n = 5; for Heart Dopamine: control 20 ± 2; for Brain Noradrenaline: control 516 ± 24; for Heart Noradrenaline: control 760 ± 87; for Brain Dopamine: control 1183 ± 28
Procedure: Saline solution is used as a control. The mice are sacrificed and the catecholamines, dopamine and noradrenaline, and serotonin (5-hydroxytryptamine) are determined by reverse-phase ion-pair high pressure liquid chromatography using electrochemical detection. […] Twelve hours after the second dose, one group of animals received an i.p. injection of 50 mg/kg of dopamine-HCl (Sigma, Chem. Co), the other group received saline instead. Three hours after the dopamine injection, the animals were killed and catecholamines were measured in heart and brain as described in Example 18.

[6] = 2 × 100 mg/kg test compound + dopamine 50 mg/kg i.p., * marked
[7] = 2 × 100 mg/kg test compound + saline, * marked

Q: Which results are given for `NC(CF)(Cc1ccc(O)c(O)c1)C(=O)O` (centres unmarked) [3,4-diOH-phenyl, 2-Amino-2-fluoromethyl-3-(3,4-dihydroxyphenyl)propionic acid]?
A: TIME OF 90% INACTIVATION ([1]; pH 7.4, 37° C.): 1 to 2 min; RATING ([1]; relative activity): ++++; % CHANGE AADC Brain ([2]; 10 mg/kg i.p. twice daily): -86%; % CHANGE AADC Kidney ([2]; 10 mg/kg i.p. twice daily): -95%; % CHANGE AADC Brain ([2]; 100 mg/kg i.p. twice daily): -99%; % CHANGE AADC Kidney ([2]; 100 mg/kg i.p. twice daily): -99%; % CHANGE NOREPINEPHRINE Brain ([3]; 10 mg/kg i.p. twice daily, * not significant): -55%; % CHANGE NOREPINEPHRINE Heart ([3]; 10 mg/kg i.p. twice daily, * not significant (-25*, -7*)): -39%; % CHANGE DOPAMINE Brain ([3]; 10 mg/kg i.p. twice daily, * not significant (-25*, -9*)): 0%; % CHANGE NOREPINEPHRINE Brain ([3]; 100 mg/kg i.p. twice daily): -80%; % CHANGE NOREPINEPHRINE Heart ([3]; 100 mg/kg i.p. twice daily): -80%; % CHANGE DOPAMINE Brain ([3]; 100 mg/kg i.p. twice daily, * not significant (-35*)): -80%; % Reduction Dopamine (brain) ([4]; vs saline): -97%; % Reduction Noradrenaline (brain) ([4]; vs saline): -94%; % Reduction Serotonin (brain) ([4]; vs saline): -83%; Noradrenaline content of the brain ([4]; ± S.E.M., saline 310 ± 15): 19.6 ± 3 ng/g; Dopamine content of the brain ([4]; ± S.E.M., saline 722 ± 47): 18.6 ± 2 ng/g; Serotonin content of the brain ([4]; ± S.E.M., saline 1685 ± 29): 282 ± 25 ng/g; Heart Dopamine [5, 6]: 429 ± 39 ng/g; Brain Noradrenaline [5, 6]: 42 ± 4 ng/g; Heart Noradrenaline ([5]; 2 × 100 mg/kg test compound + dopamine 50 mg/kg i.p.): 882 ± 47 ng/g; Brain Dopamine [5, 6]: 92 ± 8 ng/g; Heart Dopamine ([5]; 2 × 100 mg/kg test compound + saline): 98 ± 62 ng/g; Brain Noradrenaline [5, 7]: 44 ± 6 ng/g; Heart Noradrenaline [5, 7]: 173 ± 24 ng/g; Brain Dopamine [5, 7]: 47 ± 5 ng/g
